Assay results published in PubChem BioAssay (NCI).
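How tested: cells in 96-well plates exposed to compound for 48 hours at five concentrations. Here, GI50 denotes the concentration required for 50% inhibition of growth. TGI is the concentration that stops growth completely.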

Legend:
Test in all cases: DTP human tumour cell line panel, 48 h
MDA-MB-435 = tested on: MDA-MB-435
SF-539 CNS = tested on: SF-539 CNS
PC-3 prostate = tested on: PC-3 prostate
EKVX NSCLC = tested on: EKVX NSCLC
SK-MEL-28 melanoma = tested on: SK-MEL-28 melanoma
NCI-H460 lung = tested on: NCI-H460 lung
SR leukemia = tested on: SR leukemia
SF-268 CNS = tested on: SF-268 CNS
SNB-19 CNS = tested on: SNB-19 CNS
NCI-H23 lung = tested on: NCI-H23 lung
CAKI-1 renal = tested on: CAKI-1 renal
NCI-H226 lung = tested on: NCI-H226 lung
HOP-92 NSCLC = tested on: HOP-92 NSCLC
MDA-N = tested on: MDA-N
HT29 colon = tested on: HT29 colon
SK-MEL-5 melanoma = tested on: SK-MEL-5 melanoma
COLO 205 colon = tested on: COLO 205 colon
TK-10 renal = tested on: TK-10 renal
HCT-15 colon = tested on: HCT-15 colon
UACC-62 melanoma = tested on: UACC-62 melanoma
OVCAR-5 ovarian = tested on: OVCAR-5 ovarian
OVCAR-4 ovarian = tested on: OVCAR-4 ovarian
UACC-257 melanoma = tested on: UACC-257 melanoma
SN12C renal = tested on: SN12C renal
BT-549 breast = tested on: BT-549 breast
MALME-3M melanoma = tested on: MALME-3M melanoma
A498 renal = tested on: A498 renal
K-562 leukemia = tested on: K-562 leukemia
ACHN renal = tested on: ACHN renal
M14 melanoma = tested on: M14 melanoma
DU-145 prostate = tested on: DU-145 prostate
SF-295 CNS = tested on: SF-295 CNS
RXF 393 renal = tested on: RXF 393 renal
SNB-75 CNS = tested on: SNB-75 CNS
CCRF-CEM leukemia = tested on: CCRF-CEM leukemia
SK-MEL-2 melanoma = tested on: SK-MEL-2 melanoma
HL-60(TB) leukemia = tested on: HL-60(TB) leukemia
NCI/ADR-RES ovarian = tested on: NCI/ADR-RES ovarian
NCI-H522 lung = tested on: NCI-H522 lung
HCC-2998 colon = tested on: HCC-2998 colon
U251 CNS = tested on: U251 CNS
MDA-MB-231 breast = tested on: MDA-MB-231 breast
HOP-62 NSCLC = tested on: HOP-62 NSCLC
UO-31 renal = tested on: UO-31 renal
RPMI-8226 leukemia = tested on: RPMI-8226 leukemia
SK-OV-3 ovarian = tested on: SK-OV-3 ovarian
MOLT-4 leukemia = tested on: MOLT-4 leukemia
IGROV1 ovarian = tested on: IGROV1 ovarian
HCT-116 colon = tested on: HCT-116 colon
MCF7 breast = tested on: MCF7 breast
OVCAR-3 ovarian = tested on: OVCAR-3 ovarian
KM12 colon = tested on: KM12 colon
OVCAR-8 ovarian = tested on: OVCAR-8 ovarian
786-0 renal = tested on: 786-0 renal
SW-620 colon = tested on: SW-620 colon
HS 578T breast = tested on: HS 578T breast
A549 NSCLC = tested on: A549 NSCLC
T-47D breast = tested on: T-47D breast
LOX IMVI melanoma = tested on: LOX IMVI melanoma

`CN(CCCNC(=O)c1cn(C)c2c1ccc1cc(Cl)ccc12)CCCNC(=O)c1cn(C)c2c1ccc1cc(Cl)ccc12` gave a TGI (MDA-MB-435) of 3.23 µM, a TGI (SF-539 CNS) of 3.88 µM and a TGI (PC-3 prostate) of 2.97 µM. For the same compound, the TGI (EKVX NSCLC) was > 100 µM, the TGI (SK-MEL-28 melanoma) was 3.31 µM and the TGI (NCI-H460 lung) was > 100 µM. For the same compound, the TGI (SR leukemia) was 16.3 µM, the TGI (SF-268 CNS) was 3.25 µM and the TGI (SNB-19 CNS) was > 100 µM. For the same compound, the TGI (NCI-H23 lung) was > 100 µM, the TGI (CAKI-1 renal) was 9.14 µM and the TGI (NCI-H226 lung) was > 100 µM. It also gave a TGI (HOP-92 NSCLC) of 19.3 µM, a TGI (MDA-N) of 5.6 µM and a TGI (HT29 colon) of 3.19 µM. For the same compound, the TGI (SK-MEL-5 melanoma) was 20 µM, the TGI (COLO 205 colon) was 2.85 µM and the TGI (TK-10 renal) was > 100 µM. It also gave a TGI (HCT-15 colon) of 2.89 µM, a TGI (UACC-62 melanoma) of 3.76 µM and a TGI (OVCAR-5 ovarian) of 18.3 µM. For the same compound, the TGI (OVCAR-4 ovarian) was > 27.2 µM, the TGI (UACC-257 melanoma) was > 100 µM and the TGI (SN12C renal) was 3.35 µM. It also gave a TGI (BT-549 breast) of 30.9 µM, a TGI (MALME-3M melanoma) of 7.05 µM and a TGI (A498 renal) of 43.6 µM. The TGI (K-562 leukemia) was > 100 µM, the TGI (ACHN renal) was 3.47 µM and the TGI (M14 melanoma) was 3.75 µM. It also gave a TGI (DU-145 prostate) of 3.79 µM.
`COc1ccc2c(c1)C(=O)c1c-2n(CCCN=[N+]=[N-])c(=O)c2ccccc12` was tested, and the GI50 (SF-295 CNS) was 18.5 µM, the TGI (SF-295 CNS) was > 100 µM and the GI50 (RXF 393 renal) was 89.8 µM. The TGI (RXF 393 renal) was > 100 µM, the GI50 (MDA-MB-435) was 65.2 µM and the TGI (MDA-MB-435) was > 100 µM. For the same compound, the GI50 (SF-539 CNS) was 44.8 µM, the TGI (SF-539 CNS) was > 100 µM and the GI50 (SNB-75 CNS) was 18.8 µM. The TGI (SNB-75 CNS) was 65.2 µM, the GI50 (CCRF-CEM leukemia) was 10.1 µM and the TGI (CCRF-CEM leukemia) was > 100 µM. For the same compound, the GI50 (SK-MEL-2 melanoma) was 46 µM, the TGI (SK-MEL-2 melanoma) was > 100 µM and the GI50 (HL-60(TB) leukemia) was 54.1 µM. For the same compound, the TGI (HL-60(TB) leukemia) was > 100 µM, the GI50 (PC-3 prostate) was 51.4 µM and the TGI (PC-3 prostate) was > 100 µM. For the same compound, the GI50 (NCI/ADR-RES ovarian) was 91.2 µM, the TGI (NCI/ADR-RES ovarian) was > 100 µM and the GI50 (EKVX NSCLC) was 63 µM. For the same compound, the TGI (EKVX NSCLC) was > 100 µM, the GI50 (NCI-H522 lung) was 10.8 µM and the TGI (NCI-H522 lung) was > 100 µM. The GI50 (HCC-2998 colon) was 61.9 µM, the TGI (HCC-2998 colon) was > 100 µM and the GI50 (SK-MEL-28 melanoma) was > 100 µM. The TGI (SK-MEL-28 melanoma) was > 100 µM, the GI50 (U251 CNS) was 27.5 µM and the TGI (U251 CNS) was > 100 µM. For the same compound, the GI50 (MDA-MB-231 breast) was > 100 µM, the TGI (MDA-MB-231 breast) was > 100 µM and the GI50 (NCI-H460 lung) was 4.86 µM. The TGI (NCI-H460 lung) was > 100 µM, the GI50 (HOP-62 NSCLC) was 34.2 µM and the TGI (HOP-62 NSCLC) was > 100 µM. For the same compound, the GI50 (SR leukemia) was 5.7 µM, the TGI (SR leukemia) was > 100 µM and the GI50 (UO-31 renal) was 43.4 µM. The TGI (UO-31 renal) was > 100 µM, the GI50 (SF-268 CNS) was 39.8 µM and the TGI (SF-268 CNS) was > 100 µM. The GI50 (SNB-19 CNS) was 17.6 µM, the TGI (SNB-19 CNS) was > 100 µM and the GI50 (RPMI-8226 leukemia) was 51.3 µM. The TGI (RPMI-8226 leukemia) was > 100 µM, the GI50 (SK-OV-3 ovarian) was 20.3 µM and the TGI (SK-OV-3 ovarian) was 69.5 µM. The GI50 (NCI-H23 lung) was 50.4 µM, the TGI (NCI-H23 lung) was > 100 µM and the GI50 (MOLT-4 leukemia) was 4.38 µM. The TGI (MOLT-4 leukemia) was > 100 µM, the GI50 (CAKI-1 renal) was 49.7 µM and the TGI (CAKI-1 renal) was > 100 µM. For the same compound, the GI50 (NCI-H226 lung) was > 100 µM, the TGI (NCI-H226 lung) was > 100 µM and the GI50 (HOP-92 NSCLC) was 50.7 µM. For the same compound, the TGI (HOP-92 NSCLC) was > 100 µM, the GI50 (IGROV1 ovarian) was 32.8 µM and the TGI (IGROV1 ovarian) was > 100 µM. The GI50 (HT29 colon) was 41.4 µM, the TGI (HT29 colon) was > 100 µM and the GI50 (SK-MEL-5 melanoma) was 14.6 µM. The TGI (SK-MEL-5 melanoma) was > 100 µM, the GI50 (COLO 205 colon) was 34.6 µM and the TGI (COLO 205 colon) was > 100 µM. For the same compound, the GI50 (TK-10 renal) was 60 µM, the TGI (TK-10 renal) was > 100 µM and the GI50 (HCT-15 colon) was 58.4 µM. For the same compound, the TGI (HCT-15 colon) was > 100 µM, the GI50 (HCT-116 colon) was 26.7 µM and the TGI (HCT-116 colon) was > 100 µM. For the same compound, the GI50 (UACC-62 melanoma) was 75.5 µM, the TGI (UACC-62 melanoma) was > 100 µM and the GI50 (MCF7 breast) was 1.5 µM. The TGI (MCF7 breast) was > 100 µM, the GI50 (OVCAR-5 ovarian) was > 100 µM and the TGI (OVCAR-5 ovarian) was > 100 µM. The GI50 (OVCAR-4 ovarian) was 58.6 µM, the TGI (OVCAR-4 ovarian) was > 100 µM and the GI50 (UACC-257 melanoma) was > 100 µM. The TGI (UACC-257 melanoma) was > 100 µM, the GI50 (OVCAR-3 ovarian) was 52.4 µM and the TGI (OVCAR-3 ovarian) was > 100 µM. The GI50 (SN12C renal) was > 100 µM, the TGI (SN12C renal) was > 100 µM and the GI50 (KM12 colon) was > 100 µM. For the same compound, the TGI (KM12 colon) was > 100 µM, the GI50 (BT-549 breast) was 89.9 µM and the TGI (BT-549 breast) was > 100 µM. For the same compound, the GI50 (OVCAR-8 ovarian) was 73 µM, the TGI (OVCAR-8 ovarian) was > 100 µM and the GI50 (786-0 renal) was 27.9 µM. For the same compound, the TGI (786-0 renal) was > 100 µM, the GI50 (MALME-3M melanoma) was > 100 µM and the TGI (MALME-3M melanoma) was > 100 µM. The GI50 (SW-620 colon) was 25.5 µM, the TGI (SW-620 colon) was > 100 µM and the GI50 (HS 578T breast) was 62.4 µM. For the same compound, the TGI (HS 578T breast) was > 100 µM, the GI50 (A498 renal) was 21.1 µM and the TGI (A498 renal) was 69.2 µM. The GI50 (K-562 leukemia) was 26 µM, the TGI (K-562 leukemia) was > 100 µM and the GI50 (A549 NSCLC) was 52.2 µM. The TGI (A549 NSCLC) was > 100 µM, the GI50 (ACHN renal) was 28.7 µM and the TGI (ACHN renal) was > 100 µM. For the same compound, the GI50 (M14 melanoma) was 75.1 µM, the TGI (M14 melanoma) was > 100 µM and the GI50 (DU-145 prostate) was 61.5 µM. The TGI (DU-145 prostate) was > 100 µM, the GI50 (T-47D breast) was 25.9 µM and the TGI (T-47D breast) was > 100 µM. For the same compound, the GI50 (LOX IMVI melanoma) was 27.9 µM and the TGI (LOX IMVI melanoma) was > 100 µM.
